One assay deals with CAL-51 cells. Put plainly: CAL-51 Cell Proliferation Assay. Format: cell-based. The note with it: for EC50: 120 hours incubation, 10-point dose response, 4-fold dilutions starting at 10 μM, Cell-Titer-Glo, read-out: CAL-51 Prolif EC50; for CAL-51 Prolif Ymin: minimal percent of DMSO control observed in the concentrations tested (Ymin-obs), 120 hours. The procedure, abridged: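 EC50 comes from a four-parameter logistic fit of blank-corrected, DMSO-normalised CellTiter-Glo signal after 120 h growth (37 °C, 350 cells/well, RPMI complete medium). Compounds ran as 10-point 4-fold series starting at 10 μM, duplicate, 0.1% DMSO. Ymin-obs records the minimal percent of DMSO control observed.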

Another assay deals with T1, FAK (Homo sapiens, UniProt Q05397).
T1 construct: homozygous knock-in of a HiBiT tag (Promega Corporation, Madison, WI) to the C-terminus of the FAK gene in its natural genomic locus; endogenous in cells; host or cells: JHH-4-FAK-HiBiT clone d01 (CRISPR-Cas9 knock-in at the endogenous locus)
T1 sequence (Q05397 whole entry): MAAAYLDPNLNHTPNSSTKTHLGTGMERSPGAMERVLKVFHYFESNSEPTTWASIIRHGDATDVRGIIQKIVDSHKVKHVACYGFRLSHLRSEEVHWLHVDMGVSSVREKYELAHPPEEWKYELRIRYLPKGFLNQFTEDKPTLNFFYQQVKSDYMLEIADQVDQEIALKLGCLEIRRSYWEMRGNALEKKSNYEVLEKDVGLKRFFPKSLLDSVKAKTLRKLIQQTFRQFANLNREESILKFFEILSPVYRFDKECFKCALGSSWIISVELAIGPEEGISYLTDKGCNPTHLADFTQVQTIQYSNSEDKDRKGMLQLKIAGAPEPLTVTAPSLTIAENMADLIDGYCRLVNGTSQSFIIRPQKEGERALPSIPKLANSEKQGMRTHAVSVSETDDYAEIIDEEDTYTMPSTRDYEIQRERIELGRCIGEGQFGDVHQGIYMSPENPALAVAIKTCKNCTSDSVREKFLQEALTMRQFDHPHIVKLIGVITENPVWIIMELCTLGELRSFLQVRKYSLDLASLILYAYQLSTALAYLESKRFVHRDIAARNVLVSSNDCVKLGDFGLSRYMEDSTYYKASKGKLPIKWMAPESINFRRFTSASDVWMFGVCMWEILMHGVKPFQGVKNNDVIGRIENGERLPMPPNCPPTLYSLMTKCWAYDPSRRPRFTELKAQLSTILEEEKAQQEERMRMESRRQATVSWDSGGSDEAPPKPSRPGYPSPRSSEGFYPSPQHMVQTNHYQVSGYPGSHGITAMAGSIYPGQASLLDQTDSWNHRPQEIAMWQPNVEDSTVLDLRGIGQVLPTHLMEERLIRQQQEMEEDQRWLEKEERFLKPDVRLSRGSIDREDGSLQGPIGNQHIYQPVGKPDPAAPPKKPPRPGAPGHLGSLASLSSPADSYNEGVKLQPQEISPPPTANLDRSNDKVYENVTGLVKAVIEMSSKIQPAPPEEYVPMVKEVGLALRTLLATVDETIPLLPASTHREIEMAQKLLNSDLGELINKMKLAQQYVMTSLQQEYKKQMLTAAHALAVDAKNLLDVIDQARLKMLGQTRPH
Put plainly: FAK-HiBiT Degradation Assay. Format: cell-based. The settings on record: for DC50: read-out: FAK HiBiT EC50; for FAK HiBiT Ymin: lower limit of the four parameter fit (value A), Ymax derived using DMSO control, JHH-4-FAK-HiBiT cells, two hours. The essentials:
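Degradation read out by HiBiT lytic luminescence after 2 h compound exposure (top concentration 1 μM, 3-fold, 10 points) in JHH-4 clone d01 bearing endogenous FAK-HiBiT knock-in. Four-parameter logistic fit gave EC50 and Ymin; DMSO wells defined Ymax.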
In general terms: The HiBiT peptide binds its large partner to form an active luciferase.

The mark [1] stands for this setting: JHH-4-FAK-HiBiT clone d01 cells, two hours incubation, 10-point dose response, 3-fold dilution starting at 1 μM, Nano-Glo HiBiT luminescence.

Where two headings read alike, the source gives them in different places.

For orientation: EC50 means the concentration at which the effect is half-maximal. On to `O=C1CCC(N2Cc3cc(Cn4cnc5c(-c6ccc(F)cc6F)cc(N6CC(F)C6)nc54)ccc3C2=O)C(=O)N1` (stereo not drawn) [Example 22, 3-(5-((7-(2,4-difluorophenyl)-5-(3-fluoroazetidin-1-yl)-3H-imidazo[4,5-b]pyridin-3-yl)methyl)-1-oxoisoindolin-2-yl)piperidine-2,6-dione], for which the EC50 with CAL-51 cells (Homo sapiens) was 0.39 nM. Moreover, the “CAL-51 Prolif Ymin” value with CAL-51 cells is 22.20. The DC50 on FAK (setting [1]) was found to be 0.68 nM. Also, the “FAK HiBiT Ymin” value on FAK is 10.53.

As for `O=C1CC[C@H](N2Cc3cc(Cn4ncc5c(-c6ncc(CF)cc6Cl)cc(N6CC(F)C6)nc54)ccc3C2=O)C(=O)N1` [Example 72, (3S)-3-[5-({4-[3-chloro-5-(fluoromethyl)pyridin-2-yl]-6-(3-fluoroazetidin-1-yl)-1H-pyrazolo[3,4-b]pyridin-1-yl}methyl)-1-oxo-2,3-dihydro-1H-isoindol-2-yl]piperidine-2,6-dione], the EC50 in the assay on CAL-51 cells (Homo sapiens) was determined as 1.78 nM. The “CAL-51 Prolif Ymin” value in the assay on CAL-51 cells worked out at 23.41. The DC50 on FAK (setting [1]) worked out at 6.35 nM. The “FAK HiBiT Ymin” value at FAK was 7.12.

In the case of `O=C1CC[C@H](N2Cc3cc(Cn4ccc5c(-c6ncc(C(F)(F)F)cc6Cl)nc(N6CC(F)C6)nc54)ccc3C2=O)C(=O)N1` [Example 28, (S)-3-(5-((4-(3-chloro-5-(trifluoromethyl)pyridin-2-yl)-2-(3-fluoroazetidin-1-yl)-7H-pyrrolo[2,3-d]pyrimidin-7-yl)methyl)-1-oxoisoindolin-2-yl)piperidine-2,6-dione], the EC50 with CAL-51 cells (Homo sapiens) was 0.45 nM. Further, the “CAL-51 Prolif Ymin” value in the assay with CAL-51 cells worked out at 25.69. In addition, the DC50 at FAK (setting [1]) was found to be 0.38 nM. The “FAK HiBiT Ymin” value at FAK was 7.63.

As to `CN(c1cc(-c2ncc(C(F)(F)F)cc2Cl)c2cnn(Cc3ccc4c(c3)CN([C@H]3CCC(=O)NC3=O)C4=O)c2n1)[C@H]1C[C@H](O)C1` [Example 81, (3S)-3-[5-({4-[3-chloro-5-(trifluoromethyl)pyridin-2-yl]-6-{methyl[(1r,3r)-3-hydroxycyclobutyl]amino}-1H-pyrazolo[3,4-b]pyridin-1-yl}methyl)-1-oxo-2,3-dihydro-1H-isoindol-2-yl]piperidine-2,6-dione], in the assay with CAL-51 cells (Homo sapiens), the EC50 came out at 6.37 nM. Also, the “CAL-51 Prolif Ymin” value with CAL-51 cells stood at 38.16. The DC50 at FAK (setting [1]) was found to be 9.57 nM. Further, the “FAK HiBiT Ymin” value at FAK worked out at 12.82.

For `CN(c1cc(-c2ncc(C(F)(F)F)cc2Cl)c2cnn(Cc3ccc4c(c3)CN([C@H]3CCC(=O)NC3=O)C4=O)c2n1)C1COC1` [Example 99, (3S)-3-[5-({4-[3-chloro-5-(trifluoromethyl)pyridin-2-yl]-6-[methyl(oxetan-3-yl)amino]-1H-pyrazolo[3,4-b]pyridin-1-yl}methyl)-1-oxo-2,3-dihydro-1H-isoindol-2-yl]piperidine-2,6-dione], the EC50 in the assay on CAL-51 cells (Homo sapiens) amounted to 117 nM. The “CAL-51 Prolif Ymin” value in the assay with CAL-51 cells amounted to 36.78. At FAK (setting [1]), the DC50 turned out to be 25.3 nM. In addition, the “FAK HiBiT Ymin” value on FAK turned out to be 13.33.

With `CN(c1cc(-c2ncc(F)cc2Cl)c2cnn(Cc3ccc4c(c3)CN(C3CCC(=O)NC3=O)C4=O)c2n1)C(F)(F)F` (stereo not drawn) [Example 53, 3-(5-{[4-(3-chloro-5-fluoropyridin-2-yl)-6-[methyl (trifluoromethyl)amino]-1H-pyrazolo[3,4-b]pyridin-1-yl]methyl}-1-oxo-2,3-dihydro-1H-isoindol-2-yl)piperidine-2,6-dione], in the assay on CAL-51 cells (Homo sapiens), the concentration for a half-maximal effect (EC50) was found to be 9.88 nM. For the same compound, the “CAL-51 Prolif Ymin” value in the assay on CAL-51 cells was 39.88. Further, at FAK (setting [1]), the DC50 worked out at 2.45 nM. For the same compound, the “FAK HiBiT Ymin” value on FAK came to 7.24.

On to `O=C1CCC(N2Cc3cc(Cn4ncc5c(-c6ncccc6Cl)c(F)c(N6CC(F)C6)nc54)ccc3C2=O)C(=O)N1` (stereo not drawn) [Example 36, 3-(5-{[4-(3-chloropyridin-2-yl)-5-fluoro-6-(3-fluoroazetidin-1-yl)-1H-pyrazolo[3,4-b]pyridin-1-yl]methyl}-1-oxo-2,3-dihydro-1H-isoindol-2-yl)piperidine-2,6-dione], for which the EC50 in the assay with CAL-51 cells (Homo sapiens) was 0.5 nM. Further, the “CAL-51 Prolif Ymin” value in the assay on CAL-51 cells amounted to 24.38. Moreover, at FAK (setting [1]), the DC50 came to 0.98 nM. Besides, on FAK, the “FAK HiBiT Ymin” value stood at 8.36.

On to `Cc1cc(F)cnc1-c1cc(N2CC(F)C2)nc2c1cnn2Cc1ccc2c(c1)CN([C@H]1CCC(=O)NC1=O)C2=O` [Example 144, (S)-3-(5-((4-(5-fluoro-3-methylpyridin-2-yl)-6-(3-fluoroazetidin-1-yl)-1H-pyrazolo[3,4-b]pyridin-1-yl)methyl)-1-oxoisoindolin-2-yl)piperidine-2,6-dione], for which the 50% effective concentration (EC50) with CAL-51 cells (Homo sapiens) came to 7.14 nM. In addition, in the assay on CAL-51 cells, the “CAL-51 Prolif Ymin” value was found to be 35.43. In addition, the DC50 on FAK (setting [1]) is 10.1 nM. Besides, on FAK, the “FAK HiBiT Ymin” value stood at 11.17.

For `Cc1nc2c(-c3ncc(C(F)(F)F)cc3Cl)cc(N3CC(F)C3)nc2n1Cc1ccc2c(c1)CN(C1CCC(=O)NC1=O)C2=O` (stereo not drawn) [Example 21, 3-(5-((7-(3-chloro-5-(trifluoromethyl)pyridin-2-yl)-5-(3-fluoroazetidin-1-yl)-2-methyl-3H-imidazo[4,5-b]pyridin-3-yl)methyl)-1-oxoisoindolin-2-yl)piperidine-2,6-dione], the EC50 in the assay with CAL-51 cells (Homo sapiens) is 0.91 nM. Besides, the “CAL-51 Prolif Ymin” value in the assay with CAL-51 cells is listed as 23.08. The DC50 on FAK (setting [1]) amounted to 1.54 nM. On FAK, the “FAK HiBiT Ymin” value is 9.84.

In the case of `CN(C)c1cc(-c2ncc(C#N)cc2Cl)c2c(n1)N(Cc1ccc3c(c1)CN(C1CCC(=O)NC1=O)C3=O)CC2` (stereo not drawn) [Example 14, 5-chloro-6-(6-(dimethylamino)-1-((2-(2,6-dioxopiperidin-3-yl)-1-oxoisoindolin-5-yl)methyl)-2,3-dihydro-1H-pyrrolo[2,3-b]pyridin-4-yl)nicotinonitrile], the figures for the concentration for a half-maximal effect (EC50) in the assay with CAL-51 cells and at FAK (setting [1]) were 5.06 nM and 14.6 nM, respectively. For the same compound, the “CAL-51 Prolif Ymin” value in the assay on CAL-51 cells stood at 23.56. The “FAK HiBiT Ymin” value on FAK was 7.20.

In the case of `CC(C)Oc1cnc(-c2cc(N3CC(F)C3)nc3c2cnn3Cc2ccc3c(c2)CN([C@H]2CCC(=O)NC2=O)C3=O)c(Cl)c1` [Example 54, (3S)-3-[5-({4-[3-chloro-5-(propan-2-yloxy)pyridin-2-yl]-6-(3-fluoroazetidin-1-yl)-1H-pyrazolo[3,4-b]pyridin-1-yl}methyl)-1-oxo-2,3-dihydro-1H-isoindol-2-yl]piperidine-2,6-dione], the EC50 in the assay on CAL-51 cells (Homo sapiens) came to 0.73 nM. Moreover, the “CAL-51 Prolif Ymin” value in the assay with CAL-51 cells stood at 25.81. For the same compound, on FAK (setting [1]), the DC50 was 2.47 nM. In addition, the “FAK HiBiT Ymin” value on FAK turned out to be 6.69.

With `O=C1CCC(N2Cc3cc(Cn4ncc5c(-c6ncc(F)cc6Cl)cc(N6CC[C@H](O)C6)nc54)ccc3C2=O)C(=O)N1` (stereo partly drawn) [Example 100, 3-(5-{[4-(3-chloro-5-fluoropyridin-2-yl)-6-[(3S)-3-hydroxypyrrolidin-1-yl]-1H-pyrazolo[3,4-b]pyridin-1-yl]methyl}-1-oxo-2,3-dihydro-1H-isoindol-2-yl)piperidine-2,6-dione], the EC50 with CAL-51 cells (Homo sapiens) was 13.4 nM. Besides, the “CAL-51 Prolif Ymin” value in the assay with CAL-51 cells is recorded as 29.27. Also, the DC50 at FAK (setting [1]) is 26.8 nM. Further, on FAK, the “FAK HiBiT Ymin” value amounted to 9.53.

For `C[C@]1(O)CCN(c2cc(-c3ncc(C(F)(F)F)cc3Cl)c3cnn(Cc4ccc5c(c4)CN([C@H]4CCC(=O)NC4=O)C5=O)c3n2)C1` [Example 102, (3S)-3-[5-({4-[3-chloro-5-(trifluoromethyl)pyridin-2-yl]-6-[(3S)-3-hydroxy-3-methylpyrrolidin-1-yl]-1H-pyrazolo[3,4-b]pyridin-1-yl}methyl)-1-oxo-2,3-dihydro-1H-isoindol-2-yl]piperidine-2,6-dione], the EC50 in the assay with CAL-51 cells (Homo sapiens) is 10.9 nM. In addition, the “CAL-51 Prolif Ymin” value with CAL-51 cells amounted to 35.36. Moreover, on FAK (setting [1]), the DC50 was found to be 29.6 nM. Further, the “FAK HiBiT Ymin” value at FAK is given as 12.65.

In the case of `O=C1CCC(N2Cc3cc(Cn4ncc5c(-c6ncc(C(F)(F)F)cc6Cl)cc(NC6COC6)nc54)ccc3C2=O)C(=O)N1` (stereo not drawn) [Example 126, 3-[5-({4-[3-chloro-5-(trifluoromethyl)pyridin-2-yl]-6-[(oxetan-3-yl)amino]-1H-pyrazolo[3,4-b]pyridin-1-yl}methyl)-1-oxo-2,3-dihydro-1H-isoindol-2-yl]piperidine-2,6-dione], in the assay on CAL-51 cells (Homo sapiens), the EC50 turned out to be 0.47 nM. Besides, the “CAL-51 Prolif Ymin” value in the assay on CAL-51 cells is on record as 91.32. The DC50 at FAK (setting [1]) came out at 169 nM. On FAK, the “FAK HiBiT Ymin” value was determined as 89.33.

Consider `O=C1CC[C@H](N2Cc3cc(Cn4ncc5c(-c6ncc(C(F)(F)F)cc6Cl)cc(N6CC(F)C6)nc54)cnc3C2=O)C(=O)N1` [Example 77, (3S)-3-[3-({4-[3-chloro-5-(trifluoromethyl)pyridin-2-yl]-6-(3-fluoroazetidin-1-yl)-1H-pyrazolo[3,4-b]pyridin-1-yl}methyl)-7-oxo-5H,6H,7H-pyrrolo[3,4-b]pyridin-6-yl]piperidine-2,6-dione], for which the EC50 in the assay on CAL-51 cells (Homo sapiens) came out at 3.67 nM. In addition, in the assay on CAL-51 cells, the “CAL-51 Prolif Ymin” value was 28.95. Further, the DC50 on FAK (setting [1]) came out at 8 nM. Besides, on FAK, the “FAK HiBiT Ymin” value was 8.29.
